{"source": "paper PMC7804859", "about": "“A metabolically stable apelin-17 analog decreases AVP-induced antidiuresis and improves hyponatremia” (Nature Communications, 2021)", "key": {"mpkCCD cells": {"system": "mpkCCD cells", "test": "dDAVP-induced cAMP production in mpkCCD cells", "format": "cell-based, mouse", "conditions": "10 µmol/l compound, 10 nmol/l dDAVP, 60 min 37 °C", "protocol": "152 Supplementary Methods\n154 We quantified cAMP production with the cAMP dynamic 2 assay kit (Cisbio Bioassays,\n155 Codolet, France), which is based on homogeneous time-resolved fluorescence (HTRF)\n156 technology, as previously described 1. For cells expressing the Apelin-R, 2000 CHO cells/well\n157 stably expressing rat apelinR-EGFP (clone B70) were added to the 384-well plate and\n158 stimulated with 5 µmol/l forskolin (FSK) and various concentrations (0.01 pmol/l to 100\nFor cells expressing the V2-R, HEK-\n160 293T cells were transiently transfected with the human V2-R (cDNA Resource Center), after\n161 48h, 4000 cells/well were added to white 384-well optiplates and stimulated either with 5\nCells were then lysed, and\n165 cAMP levels were determined in accordance with the kit manufacturer’s instructions.\n166 Stimulation was performed in stimulation buffer-IBMX (SBI) (Hank’s balanced salt solution\n167 (HBSS-Life Technology), 5 mmol/l Hepes, 0.1% BSA stabilizer (Perkin Elmer), 1 mmol/l\n168 isobutylmethylxanthine (IBMX, Sigma Aldrich, pH 7.4)). For cAMP assay with mpkCCD\n169 cells, the cells were grown on 12 mm Transwell filters (0.4 μm pore size, Corning Costar,\n170 Cambridge, MA) until they reach confluency (4-5 days). For forskolin experiments, culture\n171 media was replaced with SBI in apical and basolateral compartments. After 30 min of […]"}, "[1]": {"system": "hyponatremic rats (AVP 30 ng/h)", "test": "Effects of LIT01-196 and tolvaptan in rat model of AVP-induced hyponatremia", "format": "in vivo", "quoted_text": "Meloxicam was administered postoperatively for analgesia. Animals were then individually housed in metabolic cages (Techniplast), and given a semi-liquid diet consisting of 25 ml Gel-Diet Breeding-10 (SAFE, Augy, France) mixed with 25 ml tap water per day, with water available ad libitum. Animal weight, water, and food consumption were measured daily. Urine was collected daily, urinary electrolytes (Na^+, K^+, Cl^−) were determined with an ISE 3000 (Caretium Medical Instruments, Shenzhen, China) and urinary osmolality was measured with a Cryobasic 1 osmometer (Astori Tecnica, Poncarale, Italy). Blood samples were collected on ice, before implantation of the osmotic minipump, and before drug administration, under isoflurane anesthesia, from the tail vein (4 µl of lithium heparinate (1600 IU/ml) for 400 µl of blood). The blood samples were immediately centrifuged (4 °C, 2600 × g, 20 min), and plasma electrolyte (Na^+, K^+, Cl^−) levels were quantified with an ISE 3000. On the last day of the experiment, blood was also collected on ice by intracardiac puncture. This blood sample was collected into lithium heparinate under isoflurane anesthesia; plasma electrolyte levels were determined as described above and the animals were immediately killed by carbon monoxide inhalation."}, "apelin-R and V2-R": {"system": "apelin-R and V2-R", "test": "dDAVP-induced cAMP production in CHO cells stably expressing both the apelin-R and the V2-R", "format": "cell-based"}, "[2]": {"system": "kidneys of normonatremic Sprague-Dawley rats", "test": "Kidney histology after 4 days of s.c. administration in rats", "format": "in vivo, rat", "parameters": "Tubular injury score: scale not given here", "protocol": "278 Kidneys were fixed in paraformaldehyde 4% overnight and processed for paraffin embedding.\n279 Sections of 4 μm thickness were made and stained with the periodic acid-Schiff (PAS)\n280 reagent and counterstained with hematoxylin. Histological analyzes were performed by a\n281 trained nephrologist (AF), blinded of the treatment group. Tubular injury score was scored\n283 vacuolization, epithelial cell shedding, and denuded tubular basement membrane, as follows:\n285 calculated from twenty viewing fields selected randomly from the outer medulla and\n286 corticomedullary junction and were examined at ×400 magnification. […]"}, "[3]": {"system": "normonatremic Sprague-Dawley rats", "test": "Effects of s.c. administration on metabolic parameters in normonatremic rats", "format": "in vivo, rat"}, "hyponatremic rats": {"system": "hyponatremic rats", "test": "Plasma AVP and apelin-IR levels in hyponatremic rats (RIA)", "format": "in vivo, rat", "protocol": "187 Apelin radioimmunoassay\n189 until use for apelin RIA.\nThe supernatants were collected and\nThe samples were dried and dissolved in\n201 centrifuged (17000 x g, 4°C, 20 min). The supernatant (4 ml) was collected, and mixed with\nThe columns were then treated as described in\nSamples (0.1ml) w ere mixed with 125I-\n212 used this radioligand instead of [Glp65, Nle75, Tyr77] [125I]-apelin13 since the substitution of\n214 derivatives as described previously by 3,4.\n216 incubated for 10 min at room temperature.\nThis antiserum identified the apelin present in the\nMost of the apelin in human plasma was\n252 TechMedILL platfor m (Illkirch) reviewed and approved by the agriculture ministry regulating\n256 Male Sprague-Dawley rats were killed by decapitation, and trunk blood was collected on ice\n257 (into 50 µl of 0.3M EDTA (pH 7.4) per 1 ml of blood). Samples were centrifuged (2,600 x g,\n258 4°C, 20 min), and the resulting plasma was split into 500 µl aliquots, to which we added 168\n259 µl of 3N HCl before storage at -80°C. The AVP RIA was performed as previously described\n260 5, using a specific AVP-[Arg8] antibody (final dilution, 1/4.5) and [125I]-(Tyr2Arg8)-AVP\n261 (2200 Ci/mmol, Perkin-Elmer, Billerica, MA; 15000 dpm) as a tracer. […]"}, "[4]": {"conditions": "900 nmol/kg SC (tolvaptan 0.4.SC [sic]), normonatremic rats, single animals"}}, "note": "“And” between values parts separate entries of the source, which are not always exact repeats. Identical values can stand only once.", "data": [{"smiles": "CSCC[C@H](NC(=O)[C@@H]1CCCN1C(=O)CNC(=O)[C@H](CCCCN)NC(=O)[C@H](Cc1c[nH]cn1)NC(=O)[C@H](CO)NC(=O)[C@H](CC(C)C)NC(=O)[C@H](CCCNC(=N)N)NC(=O)[C@@H]1CCCN1C(=O)[C@H](CCCNC(=N)N)NC(=O)[C@H](CCC(N)=O)NC(=O)[C@H](CCCNC(=N)N)NC(=O)[C@H](CCCNC(=N)N)NC(=O)[C@H](Cc1ccccc1)NC(=O)[C@H](CCCCN)NC(=O)CCC(F)(F)C(F)(F)C(F)(F)C(F)(F)C(F)(F)C(F)(F)C(F)(F)C(F)(F)F)C(=O)N1CCC[C@H]1C(=O)N[C@@H](Cc1ccccc1)C(=O)O", "note": "[LIT01-196]", "values": [{"measurement": "inhibition of dDAVP-induced cAMP production", "setting": "mpkCCD cells", "result": 79, "unit": "%"}, {"measurement": "increase in urine output 24 h after s.c. administration", "setting": "[1]; 180 nmol/kg s.c., rats receiving 30 ng/h AVP", "result": "1.5 ± 2.0", "unit": "ml/24 h/100 g"}, {"measurement": "urine osmolality, lower than AVP + saline group", "setting": "[1]; 900 nmol/kg s.c. on days 0 and 1", "result": 58, "unit": "%"}, {"measurement": "urine output, higher than AVP + saline group", "setting": "[1]; 900 nmol/kg s.c. on days 0 and 1, average days 1 to 2, n = 9", "result": 185, "unit": "%"}, {"measurement": "plasma sodium concentration on day 2", "setting": "[1]; 900 nmol/kg s.c. on days 0 and 1, saline 100 ± 2", "result": "110 ± 5", "unit": "mmol/L"}, {"measurement": "plasma sodium concentration on day 1", "setting": "[1]; 900 nmol/kg s.c., 24 h after first administration, saline 100 ± 2", "result": "109 ± 5", "unit": "mmol/L"}, {"measurement": "body weight change from baseline versus saline", "setting": "[1]; 900 nmol/kg s.c., AVP-treated animals", "result": "similar"}, {"measurement": "water consumption (including water in diet), higher than AVP + saline group", "setting": "[1]; 900 nmol/kg s.c., average days 1 to 2", "result": 177, "unit": "%"}, {"measurement": "food consumption", "setting": "[1]; 900 nmol/kg s.c., hyponatremic rats", "result": "significant increase"}, {"measurement": "increase in urine output 24 h after s.c. administration", "setting": "[1]; 900 nmol/kg s.c., rats receiving 30 ng/h AVP and liquid diet", "result": "11.7 ± 2.3", "unit": "ml/24 h/100 g"}, {"measurement": "increase in urine output 24 h after s.c. administration", "setting": "[1]; 2400 nmol/kg s.c., rats receiving 30 ng/h AVP", "result": "9.2 ± 4.1", "unit": "ml/24 h/100 g"}, {"measurement": "dDAVP-induced cAMP production", "setting": "apelin-R and V2-R", "result": "dose-dependently inhibits"}, {"measurement": "Tubular injury score", "setting": "[2]; 900 nmol/kg SC, individual animals (Fig. S5C source data)", "result": "0.105 and 0.1 and 0.05 and 0.15 and 0"}, {"measurement": "Glomerular injury score", "setting": "[2]; 900 nmol/kg SC, individual animals (Fig. S5D source data)", "result": "0.09091 and 0.1053 and 0.1429 and 0.04762 and 0.05"}, {"measurement": "histological analysis of the kidneys", "setting": "[2]; 900 nmol/kg s.c. for 4 consecutive days, rats", "result": "did not reveal any abnormality"}, {"measurement": "Urine osmolality (3 hours)", "setting": "[3]; [4]", "result": "1384 and 748 and 940 and 740 and 756 and 732"}, {"measurement": "Urine osmolality (6 hours)", "setting": "[3]; [4]", "result": "356 and 1028 and 440 and 1112 and 752 and 680"}, {"measurement": "Urine osmolality (24 hours)", "setting": "[3]; [4]", "result": "1095 and 2308 and 2437 and 1605 and 969 and 1304 and 1184 and 540 and 808 and 632 and 904 and 972 and 1020 and 1112 and 960 and 572 and 760 and 772 and 928 and 708 and 1220 and 1508"}, {"measurement": "body weight change (weight loss)", "setting": "[3]; 900 nmol/kg s.c., 24 h", "result": "−1.8", "unit": "%"}, {"measurement": "increase in water intake", "setting": "[3]; 900 nmol/kg s.c., 24 h", "result": 11, "unit": "%"}, {"measurement": "increase in water intake to food intake ratio", "setting": "[3]; 900 nmol/kg s.c., 24 h", "result": 50, "unit": "%"}, {"measurement": "increase in free water excretion fraction", "setting": "[3]; 900 nmol/kg s.c., 24 h, n = 6", "result": 86, "unit": "%"}, {"measurement": "decrease in food (normal chow) intake", "setting": "[3]; 900 nmol/kg s.c., 24 h, non-significant", "result": 20, "unit": "%"}, {"measurement": "increase in 24-h urine output relative to saline", "setting": "[3]; 900 nmol/kg s.c., normonatremic rats", "result": 79, "unit": "%"}, {"measurement": "decrease in urine osmolality", "setting": "[3]; 900 nmol/kg s.c., normonatremic rats, 24 h", "result": 52, "unit": "%"}, {"measurement": "Water excretion fraction", "setting": "[3]; LIT01-196 900 nmol/kg SC, individual animals (Fig. S4C source data)", "result": "0.8192 and 1.335 and 0.9524 and 0.95 and 0.8692 and 1.016"}, {"measurement": "Sodium excretion fraction", "setting": "[3]; LIT01-196 900 nmol/kg SC, individual animals (Fig. S4D source data)", "result": "0.6321 and 0.5196 and 0.512 and 0.526 and 0.4023 and 0.292"}, {"measurement": "Sodium excretion fraction", "setting": "[3]; LIT01-196 900 nmol/kg, tolvaptan 6700 nmol/kg s.c., 24 h", "result": "not changed"}, {"measurement": "Water to food ratio", "setting": "[3]; normonatremic rats, 900 nmol/kg SC, individual animal values (source data Fig. 4L)", "result": "1.9011 and 2.746 and 2.674 and 1.755 and 1.9235 and 1.556 and 1.545"}, {"measurement": "plasma AVP levels versus AVP-treated rats receiving saline", "setting": "hyponatremic rats; 900 nmol/kg s.c., 3 h", "result": "No significant difference"}, {"measurement": "increase in plasma apelin-IR/AVP ratio relative to saline", "setting": "hyponatremic rats; 900 nmol/kg s.c., 3 h, hyponatremic rats", "result": 518, "unit": "%"}, {"measurement": "plasma apelin-IR material levels, higher than AVP + saline", "setting": "hyponatremic rats; 900 nmol/kg s.c., 3 h, n = 5", "result": 372, "unit": "%"}, {"measurement": "Plasma AVP", "setting": "hyponatremic rats; AVP 30 ng/h rats, LIT01-196 900 nmol/kg SC, individual animals (Fig. 6A source data)", "result": "26.2192 and 47.0941 and 28.2654 and 46.4247 and 26.8381"}, {"measurement": "Plasma apelin", "setting": "hyponatremic rats; AVP 30 ng/h rats, LIT01-196 900 nmol/kg SC, individual animals (Fig. 6B source data)", "result": "2578 and 2160 and 2508 and 1740 and 2599"}, {"measurement": "Apelin to AVP ratio", "setting": "hyponatremic rats; AVP 30 ng/h rats, LIT01-196 900 nmol/kg SC, individual animals (Fig. 6C source data)", "result": "98.309 and 45.8759 and 88.7295 and 37.4882 and 96.8538"}]}]}
